This note sets out measurements from the OligoGym collection.

Where “and” joins values, the source holds several entries; their conditions need not be identical. Equal values may be shown once. HELM strings list units from the 5' end as sugar, base in round brackets, then linkage (d deoxyribose, r ribose, m 2'-O-methyl, p phosphodiester). Methylation of C is not given here. [moe] = 2'-O-(2-methoxyethyl) (MOE); [cEt] = constrained ethyl (cEt); [sp] = phosphorothioate linkage

One data set deals with HBV. To be noted: ASO, HepG2, 0.0092593 µM.
“RNA1{[moe](A)[sp].[moe](C)[sp].d(G)[sp].d(T)[sp].d(G)[sp].d(C)[sp].d(A)[sp].d(G)[sp].d(A)[sp].d(G)[sp].d(G)[sp].[moe](T)[sp].[moe](G)[sp].[moe](A)[sp].[moe](A)[sp].[moe](G)[sp].[moe](C)}$$$$V2.0” gave a target mRNA inhibition of 20%.

The data set is the same for the next values; noted with them: ASO, HepG2, 0.0277778 µM.
“RNA1{[moe](A)[sp].[moe](C)[sp].d(G)[sp].d(T)[sp].d(G)[sp].d(C)[sp].d(A)[sp].d(G)[sp].d(A)[sp].d(G)[sp].d(G)[sp].[moe](T)[sp].[moe](G)[sp].[moe](A)[sp].[moe](A)[sp].[moe](G)[sp].[moe](C)}$$$$V2.0” gave a target mRNA inhibition of 25%.

Staying with this data set, now noted: ASO, HepG2, 0.07 µM.
As for “RNA1{[moe](A)[sp].[cEt](G)[sp].[cEt](A)[sp].d(A)[sp].d(G)[sp].d(T)[sp].d(C)[sp].d(C)[sp].d(A)[sp].d(C)[sp].d(C)[sp].d(A)[sp].d(C)[sp].[cEt](G)[sp].[cEt](A)[sp].[moe](G)}$$$$V2.0”, the target mRNA inhibition was 58% and 48%. Same read-out and setting: as for “RNA1{[moe](A)[sp].[moe](C)[sp].[moe](C)[sp].[moe](A)[sp].d(C)[sp].d(T)[sp].d(G)[sp].d(A)[sp].d(A)[sp].d(C)[sp].d(A)[sp].d(A)[sp].d(A)[sp].[moe](T)[sp].[moe](G)[sp].[moe](G)[sp].[moe](C)}$$$$V2.0”, the figure is 60% and 61%; as for “RNA1{[moe](A)[sp].[moe](G)[sp].[moe](A)[sp].d(A)[sp].d(G)[sp].d(T)[sp].d(C)[sp].d(C)[sp].d(A)[sp].d(C)[sp].d(C)[sp].d(A)[sp].[moe](C)[sp].[moe](G)[sp].[moe](A)[sp].[moe](G)[sp].[moe](T)}$$$$V2.0”, 41% and 44%.

Turning to “RNA1{[moe](T)[sp].[moe](T)[sp].[moe](C)[sp].[moe](C)[sp].[moe](G)[sp].d(C)[sp].d(A)[sp].d(G)[sp].d(T)[sp].d(A)[sp].d(T)[sp].d(G)[sp].d(G)[sp].d(A)[sp].[moe](T)[sp].[moe](C)}$$$$V2.0”, the target mRNA inhibition was 59% and 58%.

Substance “RNA1{[moe](A)[sp].[moe](C)[sp].d(G)[sp].d(T)[sp].d(G)[sp].d(C)[sp].d(A)[sp].d(G)[sp].d(A)[sp].d(G)[sp].d(G)[sp].[moe](T)[sp].[moe](G)[sp].[moe](A)[sp].[moe](A)[sp].[moe](G)[sp].[moe](C)}$$$$V2.0” came in with a target mRNA inhibition of 78%. Consider “RNA1{[moe](T)[sp].[moe](A)[sp].[moe](T)[sp].d(G)[sp].d(C)[sp].d(C)[sp].d(T)[sp].d(A)[sp].d(C)[sp].d(A)[sp].d(G)[sp].d(C)[sp].d(C)[sp].[cEt](T)[sp].[cEt](C)[sp].[cEt](C)}$$$$V2.0”, for which the target mRNA inhibition was 39% and 45%. As for “RNA1{[moe](T)[sp].[moe](G)[sp].[moe](A)[sp].[moe](G)[sp].d(G)[sp].d(C)[sp].d(A)[sp].d(T)[sp].d(A)[sp].d(G)[sp].d(C)[sp].d(A)[sp].d(G)[sp].[moe](C)[sp].[moe](A)[sp].[moe](G)}$$$$V2.0”, the target mRNA inhibition was 56% and 53%. Still for that read-out and setting: for “RNA1{[moe](T)[sp].[moe](G)[sp].[moe](A)[sp].[moe](G)[sp].[moe](G)[sp].d(C)[sp].d(A)[sp].d(T)[sp].d(A)[sp].d(G)[sp].d(C)[sp].d(A)[sp].d(G)[sp].d(C)[sp].[moe](A)[sp].[moe](G)}$$$$V2.0” the value was 48% and 51%; for “RNA1{[moe](A)[sp].[moe](G)[sp].d(T)[sp].d(T)[sp].d(C)[sp].d(C)[sp].d(G)[sp].d(C)[sp].d(A)[sp].d(G)[sp].d(T)[sp].[moe](A)[sp].[moe](T)[sp].[moe](G)[sp].[moe](G)[sp].[moe](A)[sp].[moe](T)}$$$$V2.0”, 68% and 70%. As for “RNA1{[moe](A)[sp].[moe](A)[sp].[moe](C)[sp].[moe](C)[sp].d(A)[sp].d(C)[sp].d(T)[sp].d(G)[sp].d(A)[sp].d(A)[sp].d(C)[sp].d(A)[sp].d(A)[sp].[moe](A)[sp].[moe](T)[sp].[moe](G)[sp].[moe](G)}$$$$V2.0”, the target mRNA inhibition is 57% and 55%. Still for that read-out and setting: for “RNA1{[moe](G)[sp].[moe](A)[sp].[moe](G)[sp].[moe](A)[sp].d(A)[sp].d(G)[sp].d(T)[sp].d(C)[sp].d(C)[sp].d(A)[sp].d(C)[sp].d(C)[sp].d(A)[sp].[moe](C)[sp].[moe](G)[sp].[moe](A)[sp].[moe](G)}$$$$V2.0” the value was 42% and 29%; for “RNA1{[moe](C)[sp].[moe](A)[sp].[moe](A)[sp].[moe](T)[sp].[moe](T)[sp].d(T)[sp].d(A)[sp].d(T)[sp].d(G)[sp].d(C)[sp].d(C)[sp].d(T)[sp].d(A)[sp].d(C)[sp].[moe](A)[sp].[moe](G)[sp].[moe](C)}$$$$V2.0”, 30% and 13%; for “RNA1{[moe](A)[sp].[moe](A)[sp].d(G)[sp].d(A)[sp].d(T)[sp].d(G)[sp].d(A)[sp].d(G)[sp].d(G)[sp].d(C)[sp].d(A)[sp].[moe](T)[sp].[moe](A)[sp].[moe](G)[sp].[moe](C)[sp].[moe](A)[sp].[moe](G)}$$$$V2.0”, 72% and 68%. Take “RNA1{[moe](A)[sp].[moe](C)[sp].[moe](T)[sp].d(G)[sp].d(G)[sp].d(A)[sp].d(G)[sp].d(C)[sp].d(C)[sp].d(A)[sp].d(C)[sp].d(C)[sp].[moe](A)[sp].[moe](G)[sp].[moe](C)[sp].[moe](A)[sp].[moe](G)}$$$$V2.0”: the target mRNA inhibition was 67% and 65%.

With “RNA1{[moe](G)[sp].[moe](C)[sp].d(A)[sp].d(G)[sp].d(A)[sp].d(G)[sp].d(G)[sp].d(T)[sp].d(G)[sp].d(A)[sp].d(A)[sp].[moe](G)[sp].[moe](C)[sp].[moe](G)[sp].[moe](A)[sp].[moe](A)[sp].[moe](G)}$$$$V2.0”, the target mRNA inhibition was 20% and 40%. As to “RNA1{[moe](C)[sp].[moe](C)[sp].[moe](A)[sp].[moe](A)[sp].d(T)[sp].d(T)[sp].d(T)[sp].d(A)[sp].d(T)[sp].d(G)[sp].d(C)[sp].d(C)[sp].d(T)[sp].[moe](A)[sp].[moe](C)[sp].[moe](A)[sp].[moe](G)}$$$$V2.0”, the target mRNA inhibition is 34% and 11%. The same measure, in the same setting: as for “RNA1{[moe](T)[sp].[moe](G)[sp].d(A)[sp].d(G)[sp].d(G)[sp].d(C)[sp].d(A)[sp].d(T)[sp].d(A)[sp].d(G)[sp].d(C)[sp].[moe](A)[sp].[moe](G)[sp].[moe](C)[sp].[moe](A)[sp].[moe](G)[sp].[moe](G)}$$$$V2.0”, the figure is 73% and 72%; as for “RNA1{[moe](T)[sp].[moe](T)[sp].[moe](T)[sp].[moe](A)[sp].[moe](T)[sp].d(G)[sp].d(C)[sp].d(C)[sp].d(T)[sp].d(A)[sp].d(C)[sp].d(A)[sp].d(G)[sp].d(C)[sp].[moe](C)[sp].[moe](T)}$$$$V2.0”, 53% and 37%; as for “RNA1{[moe](A)[sp].[moe](A)[sp].d(T)[sp].d(T)[sp].d(T)[sp].d(A)[sp].d(T)[sp].d(G)[sp].d(C)[sp].d(C)[sp].d(T)[sp].[moe](A)[sp].[moe](C)[sp].[moe](A)[sp].[moe](G)[sp].[moe](C)[sp].[moe](C)}$$$$V2.0”, 52% and 48%. Still for that read-out and setting: for “RNA1{[moe](C)[sp].[moe](C)[sp].d(G)[sp].d(C)[sp].d(A)[sp].d(G)[sp].d(T)[sp].d(A)[sp].d(T)[sp].d(G)[sp].d(G)[sp].[moe](A)[sp].[moe](T)[sp].[moe](C)[sp].[moe](G)[sp].[moe](G)[sp].[moe](C)}$$$$V2.0” the value was 86% and 80%; for “RNA1{[moe](C)[sp].[moe](G)[sp].[moe](T)[sp].d(G)[sp].d(C)[sp].d(A)[sp].d(G)[sp].d(A)[sp].d(G)[sp].d(G)[sp].d(T)[sp].d(G)[sp].[moe](A)[sp].[moe](A)[sp].[moe](G)[sp].[moe](C)}$$$$V2.0”, 62% and 42%; for “RNA1{[moe](C)[sp].[moe](G)[sp].[moe](C)[sp].[moe](A)[sp].[moe](G)[sp].d(T)[sp].d(A)[sp].d(T)[sp].d(G)[sp].d(G)[sp].d(A)[sp].d(T)[sp].d(C)[sp].d(G)[sp].[moe](G)[sp].[moe](C)[sp].[moe](A)}$$$$V2.0”, 56% and 57%. “RNA1{[moe](C)[sp].[cEt](G)[sp].d(T)[sp].d(G)[sp].d(C)[sp].d(A)[sp].d(G)[sp].d(A)[sp].d(G)[sp].d(G)[sp].d(T)[sp].d(G)[sp].[cEt](A)[sp].[moe](A)[sp].[cEt](G)[sp].[moe](C)}$$$$V2.0”: the target mRNA inhibition was 76% and 79%.

For the substance “RNA1{[moe](A)[sp].[moe](G)[sp].[moe](A)[sp].[moe](T)[sp].d(G)[sp].d(A)[sp].d(G)[sp].d(G)[sp].d(C)[sp].d(A)[sp].d(T)[sp].d(A)[sp].d(G)[sp].[moe](C)[sp].[moe](A)[sp].[moe](G)[sp].[moe](C)}$$$$V2.0”, the target mRNA inhibition was 45% and 40%. As to “RNA1{[moe](G)[sp].[moe](A)[sp].[moe](G)[sp].d(T)[sp].d(T)[sp].d(C)[sp].d(C)[sp].d(G)[sp].d(C)[sp].d(A)[sp].d(G)[sp].d(T)[sp].[moe](A)[sp].[moe](T)[sp].[moe](G)[sp].[moe](G)}$$$$V2.0”, the target mRNA inhibition was 54% and 30%. Consider “RNA1{[moe](C)[sp].[moe](C)[sp].[moe](A)[sp].[moe](A)[sp].[moe](T)[sp].d(T)[sp].d(T)[sp].d(A)[sp].d(T)[sp].d(G)[sp].d(C)[sp].d(C)[sp].d(T)[sp].d(A)[sp].[moe](C)[sp].[moe](A)[sp].[moe](G)}$$$$V2.0”, for which the target mRNA inhibition was 25% and 9%. Still for that read-out and setting: as for “RNA1{[moe](T)[sp].[moe](G)[sp].[moe](A)[sp].[moe](A)[sp].d(G)[sp].d(C)[sp].d(G)[sp].d(A)[sp].d(A)[sp].d(G)[sp].d(T)[sp].d(G)[sp].d(C)[sp].[moe](A)[sp].[moe](C)[sp].[moe](A)[sp].[moe](C)}$$$$V2.0”, the figure is 62% and 51%; as for “RNA1{[moe](T)[sp].[cEt](G)[sp].d(A)[sp].d(G)[sp].d(A)[sp].d(G)[sp].d(A)[sp].d(A)[sp].d(G)[sp].d(T)[sp].d(C)[sp].d(C)[sp].[cEt](A)[sp].[moe](C)[sp].[cEt](C)[sp].[moe](A)}$$$$V2.0”, 60% and 43%. For the substance “RNA1{[moe](G)[sp].[moe](C)[sp].[moe](A)[sp].[moe](C)[sp].[moe](T)[sp].d(A)[sp].d(G)[sp].d(T)[sp].d(A)[sp].d(A)[sp].d(A)[sp].d(C)[sp].d(T)[sp].d(G)[sp].[moe](A)[sp].[moe](G)[sp].[moe](C)}$$$$V2.0”, the target mRNA inhibition is 58% and 63%. In the case of “RNA1{[moe](G)[sp].[moe](A)[sp].[moe](G)[sp].d(G)[sp].d(C)[sp].d(A)[sp].d(T)[sp].d(A)[sp].d(G)[sp].d(C)[sp].d(A)[sp].d(G)[sp].[moe](C)[sp].[moe](A)[sp].[moe](G)[sp].[moe](G)}$$$$V2.0”, the target mRNA inhibition was 58% and 57%.

Staying with this data set, now noted: ASO, HepG2, 0.0833333 µM.
The substance “RNA1{[moe](A)[sp].[moe](C)[sp].d(G)[sp].d(T)[sp].d(G)[sp].d(C)[sp].d(A)[sp].d(G)[sp].d(A)[sp].d(G)[sp].d(G)[sp].[moe](T)[sp].[moe](G)[sp].[moe](A)[sp].[moe](A)[sp].[moe](G)[sp].[moe](C)}$$$$V2.0” yielded a target mRNA inhibition of 69%.

The same data set, now with this note: ASO, HepG2, 0.25 µM.
In turn, “RNA1{[moe](A)[sp].[moe](C)[sp].d(G)[sp].d(T)[sp].d(G)[sp].d(C)[sp].d(A)[sp].d(G)[sp].d(A)[sp].d(G)[sp].d(G)[sp].[moe](T)[sp].[moe](G)[sp].[moe](A)[sp].[moe](A)[sp].[moe](G)[sp].[moe](C)}$$$$V2.0” gave a target mRNA inhibition of 89%.
